The source of these data is patent US10316017B2, “COT modulators and methods of use thereof” (Gilead Sciences, Inc., priority 2015, dated 2019).

In general, EC50 refers to the midpoint of the concentration-response curve. By IC50 is commonly meant the concentration that inhibits the measured activity by half.

Experiment [1] concerns TNFα production in LPS-stimulated human monocytes. Kind of experiment: Cot Monocyte TNFα Cell Based Assay. As to conditions: Homo sapiens, Monocyte, read-out: EC50 TNF. The essentials:
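TR-FRET read-out of total secreted TNFα, normalized as % control (unstimulated = 0%, LPS-stimulated = 100%). Cells (5,000/well) were exposed to compound 1 h at 37 °C, then to 50 pg/ml LPS for a further 4 h.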

Experiment [2] deals with T1, human Cot catalytic domain (30-397 amino acids) (Homo sapiens, UniProt P41279).
T1 construct: Purified recombinant human Cot catalytic domain (30-397 amino acids) was purchased from Cama Biosciences; purchased Cama Biosciences (so in the source)
T1 sequence (P41279 30-397): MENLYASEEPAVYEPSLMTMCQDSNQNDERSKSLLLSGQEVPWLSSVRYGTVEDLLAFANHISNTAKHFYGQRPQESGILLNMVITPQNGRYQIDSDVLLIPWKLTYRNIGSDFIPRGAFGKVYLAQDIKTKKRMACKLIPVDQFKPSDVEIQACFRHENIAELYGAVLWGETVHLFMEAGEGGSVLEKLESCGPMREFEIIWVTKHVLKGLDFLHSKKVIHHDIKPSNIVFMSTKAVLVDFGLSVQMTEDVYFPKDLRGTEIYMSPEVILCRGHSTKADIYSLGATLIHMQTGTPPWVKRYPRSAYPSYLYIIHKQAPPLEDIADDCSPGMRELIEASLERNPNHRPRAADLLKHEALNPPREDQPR
Kind of experiment: High Throughput Cot Biochemical Assay (KinEASE TR-FRET). The following applies: read-out: IC50 HTRF. In outline: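 TR-FRET readout: Eu-labeled phospho-specific antibody binds XL665-tagged STK3 peptide after phosphorylation by Cot (aa 30-397, 5 nM). Conditions: 400 μM ATP, 1 μM peptide, MOPS pH 7.0 buffer with MgOAc, DTT, BSA, NP-40, glycerol; 0.1% DMSO.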
For orientation: TR-FRET usually uses a lanthanide donor and a delayed reading to cut background.

Setting [3] is: TNFα in LPS-stimulated human monocytes.
Where [4] appears, read: Cot biochemical HTRF (KinEASE TR-FRET) assay.
Where [5] appears, read: LPS-stimulated human monocytes, TNFα TR-FRET.
The mark [6] stands for this setting: Cot KinEASE TR-FRET, 400 μM ATP.
The mark [7] stands for this setting: Cot KinEASE TR-FRET (HTRF) biochemical assay, 400 μM ATP.

Like-named read-outs stand apart in the source and are kept apart here.

For the compound `N#Cc1cnc2c(Cl)cc(N[C@@H](c3cccc(CN4CCCC4)c3)c3c[nH]nn3)cc2c1Nc1ccc(F)c(Cl)c1` [Example 575, (S)-8-chloro-4-((3-chloro-4-fluorophenyl)amino)-6-(((3-(pyrrolidin-1-ylmethyl)phenyl) (1H-1,2,3-triazol-4-yl)methyl)amino)quinoline-3-carbonitrile], the concentration for a half-maximal effect (EC50) in experiment [1] (setting [3]) is 429 nM. Besides, the IC50 in experiment [2] (setting [4]) worked out at 10 nM.

For the compound `CC(C)(C)N1CCC(n2cc([C@@H](Nc3cc(Cl)c4ncc(C#N)c(Nc5ccc(F)c(Cl)c5)c4c3)c3cccc(C(=O)N4CC(F)C4)c3)nn2)CC1` [Example 646, (S)-6-(((1-(1-(tert-butyl)piperidin-4-yl)-1H-1,2,3-triazol-4-yl)(3-(3-fluoroazetidine-1-carbonyl)phenyl)methyl)amino)-8-chloro-4-((3-chloro-4-fluorophenyl)amino)quinoline-3-carbonitrile], the EC50 in experiment [1] (setting [3]) turned out to be 49 nM. In addition, the IC50 in experiment [2] (setting [4]) came out at 1 nM.

`Cc1cc(C#N)ccc1[C@H](Nc1cc(Cl)c2ncc(C#N)c(NCC(C)(C)C)c2c1)c1cn(C2(C(F)F)CC2)nn1` [Example 1098, (S)-8-chloro-6-(((4-cyano-2-methylphenyl)(1-(1-(difluoromethyl)cyclopropyl)-1H-1,2,3-triazol-4-yl)methyl)amino)-4-(neopentylamino)quinoline-3-carbonitrile]: the EC50 in experiment [1] (setting [5]) came to 73 nM. Further, the IC50 in experiment [2] (setting [6]) was 23 nM.

With `N#Cc1cnc2c(Cl)cc(N[C@@H](c3ccc(Cl)cc3)c3c[nH]nn3)cc2c1Nc1ccc2c(cnn2Cc2ccccc2)c1` [Example 638, (S)-4-((1-benzyl-1H-indazol-5-yl)amino)-8-chloro-6-(((4-chlorophenyl)(1H-1,2,3-triazol-4-yl)methyl)amino)quinoline-3-carbonitrile], the EC50 in experiment [1] (setting [3]) worked out at 2650 nM. Besides, the IC50 in experiment [2] (setting [4]) is over 10000 nM.

Turning to `[2H][C@](Nc1cc(S(C)(=O)=O)c2ncc(C#N)c(NCC(C)(C)C)c2c1)(c1ccc(F)cc1)c1cn(C2CC2)nn1` [Example 931, (S)-6-(((1-cyclopropyl-1H-1,2,3-triazol-4-yl)(4-fluorophenyl)methyl-d)amino)-8-(methylsulfonyl)-4-(neopentylamino)quinoline-3-carbonitrile], in experiment [1] (setting [5]), the EC50 is 447 nM. In experiment [2] (setting [6]), the IC50 worked out at 27 nM.

Consider `[2H]C(Nc1cc(Cl)c2ncc(C#N)c(NC3C(C)CCCC3C)c2c1)(c1ccc(F)cc1)c1cn(C2CC2)nn1` (stereo in doubt) [Example 320, 8-chloro-6-(((S)(1-cyclopropyl-1H-1,2,3-triazol-4-yl)(4-fluorophenyl)methyl-d)amino)-4-((2,6-dimethylcyclohexyl)amino) quinoline-3-carbonitrile], for which the EC50 in experiment [1] (setting [3]) is 6430 nM. Moreover, the IC50 in experiment [2] (setting [7]) worked out at 1150 nM.

For `CC[C@@H](Nc1c(C#N)cnc2c(Cl)cc(N(CC)[C@@H](c3ccccc3)c3c[nH]nn3)cc12)c1ccccc1` [Example 481, 8-chloro-6-(ethyl((S)-phenyl(1H-1,2,3-triazol-4-yl)methyl)amino)-4-(((R)-1-phenylpropyl)amino) quinoline-3-carbonitrile], in experiment [1] (setting [3]), the EC50 was 8800 nM. For the same compound, the IC50 in experiment [2] (setting [4]) was 298 nM.

Turning to `Cc1c([C@H](Nc2cc(Cl)c3ncc(C#N)c(NCC(C)(C)C)c3c2)c2cn(C3(C(F)(F)F)CC3)nn2)cccc1-n1nccn1` [Example 1039, (S)-8-chloro-6-(((2-methyl-3-(2H-1,2,3-triazol-2-yl)phenyl)(1-(1-(trifluoromethyl)cyclopropyl)-1H-1,2,3-triazol-4-yl)methyl)amino)-4-(neopentylamino)quinoline-3-carbonitrile], in experiment [1] (setting [5]), the EC50 came out at 496 nM. Also, the IC50 in experiment [2] (setting [6]) amounted to 19 nM.

As to `CC(C)(C)N1CCC(n2cc([C@@H](Nc3cc(Cl)c4ncc(C#N)c(NS(=O)(=O)c5ccccc5)c4c3)c3ccccc3)nn2)CC1` [Example 520, (S)-N-(6-(((1-(1-(tert-butyl)piperidin-4-yl)-1H-1,2,3-triazol-4-yl)(phenyl)methyl)amino)-8-chloro-3-cyanoquinolin-4-yl)benzenesulfonamide], the EC50 in experiment [1] (setting [3]) is over 10000 nM. Further, the IC50 in experiment [2] (setting [4]) is over 10000 nM.

With `[2H][C@](Nc1cc(Cl)c2ncc(C#N)c(N[C@H](c3ccccc3)[C@H]3C[C@@H]3C#N)c2c1)(c1ccc(F)cc1)c1cn(C2CC2)nn1` [Example 161, 8-chloro-4-(((S)-((1S,2S)-2-cyanocyclopropyl) (phenyl)methyl)amino)-6-(((S)-(1-cyclopropyl-1H-1,2,3-triazol-4-yl)(4-fluorophenyl)methyl-d)amino) quinoline-3-carbonitrile], the half-maximal effective concentration (EC50) in experiment [1] (setting [3]) is over 10000 nM. Moreover, the IC50 in experiment [2] (setting [7]) was 941 nM.

Consider `N#Cc1cnc2c(Cl)cc(N[C@@H](c3ccccc3)c3c[nH]nn3)cc2c1Nc1cccc(Cl)c1F` [Example 613, (S)-8-chloro-4-((3-chloro-2-fluorophenyl)amino)-6-((phenyl(1H-1,2,3-triazol-4-yl)methyl)amino)quinoline-3-carbonitrile], for which, in experiment [1] (setting [3]), the EC50 is 708 nM. Further, the IC50 in experiment [2] (setting [4]) was found to be 41 nM.

`CN(c1cccc([C@H](Nc2cc(C#N)c3ncc(C#N)c(NCC(C)(C)C)c3c2)c2cn(C3CC3)nn2)c1)S(C)(=O)=O` [Example 69, (S)-N-(3-((1-cyclopropyl-1H-1,2,3-triazol-4-yl)((3,8-dicyano-4-(neopentylamino)quinolin-6-yl)amino)methyl)phenyl)-N-methylmethanesulfonamide]: the EC50 in experiment [1] (setting [3]) was found to be 124 nM. Moreover, the IC50 in experiment [2] (setting [7]) amounted to 3 nM.

For the compound `CC(C)(C)CNc1c(C#N)cnc2c(C#N)cc(N[C@@H](c3cccc(C4(C#N)CC4)c3)c3cn(C4(C(F)(F)F)CC4)nn3)cc12` [Example 1128, (S)-6-(((3-(1-cyanocyclopropyl)phenyl)(1-(1-(trifluoromethyl)cyclopropyl)-1H-1,2,3-triazol-4-yl)methy;)amino)-4-(neopentylamino)quinoline-3,8-dicarbonitrile], the EC50 in experiment [1] (setting [5]) is 307 nM. In experiment [2] (setting [6]), the IC50 was determined as 9 nM.

On to `CC(C)(C)N1CCC(n2cc([C@@H](Nc3cc(Cl)c4ncc(C#N)c(NCC5CCC5)c4c3)c3ccccc3)nn2)CC1` [Example 454, (S)-6-(((1-(1-(tert-butyl)piperidin-4-yl)-1H-1,2,3-triazol-4-yl)(phenyl)methyl)amino)-8-chloro-4-((cyclobutylmethyl)amino) quinoline-3-carbonitrile], for which the EC50 in experiment [1] (setting [3]) is 1770 nM. Moreover, the IC50 in experiment [2] (setting [4]) was found to be 49 nM.

On to `[2H][C@](Nc1cc(Cl)c2ncc(C#N)c(NC3CC34CCCCC4)c2c1)(c1ccc(F)cc1)c1cn(C2CC2)nn1` (stereo partly drawn) [Example 143, 8-chloro-6-(((S)-(1-cyclopropyl-1H-1,2,3-triazol-4-yl)(4-fluorophenyl)methyl-d)amino)-4-(spiro[2.5]octan-1-ylamino)quinoline-3-carbonitrile], for which, in experiment [1] (setting [3]), the EC50 worked out at 1170 nM. Also, in experiment [2] (setting [7]), the IC50 is 99 nM.

For `[2H][C@](Nc1cc(Cl)c2ncc(C#N)c(N[C@H]3CCCC[C@@H]3CO)c2c1)(c1ccc(F)cc1)c1cn(C2CC2)nn1` [Example 234, 8-chloro-6-(((S)-(1-cyclopropyl-1H-1,2,3-triazol-4-yl)(4-fluorophenyl)methyl-d)amino)-4-(((1S,2S)-2-(hydroxymethyl)cyclohexyl)amino) quinoline-3-carbonitrile], the EC50 in experiment [1] (setting [3]) came out at 5630 nM. The IC50 in experiment [2] (setting [7]) was 523 nM.

Take `[2H][C@](Nc1cc(F)c2ncc(C#N)c(N[C@H](CC)c3ccccc3)c2c1)(c1ccc(F)cc1)c1cn(C2CC2)nn1` [Example 291, 6-(((S)-(1-cyclopropyl-1H-1,2,3-triazol-4-yl)(4-fluorophenyl)methyl-d)amino)-8-fluoro-4-(((R)-1-phenylpropyl)amino) quinoline-3-carbonitrile]: in experiment [1] (setting [3]), the EC50 worked out at 173 nM. Also, the IC50 in experiment [2] (setting [7]) came to 8 nM.

Consider `Cc1c(C#N)cccc1[C@H](Nc1cc(Cl)c2ncc(C#N)c(NCC(C)(C)C)c2c1)c1cn(C2(C(F)F)CC2)nn1` [Example 1012, (S)-8-chloro-6-(((3-cyano-2-methylphenyl)(1-(1-(difluoromethyl)cyclopropyl)-1H-1,2,3-triazol-4-yl)methyl)amino)-4-(neopentylamino)quinoline-3-carbonitrile], for which the EC50 in experiment [1] (setting [5]) stood at 36 nM. Also, in experiment [2] (setting [6]), the IC50 turned out to be 3 nM.

As for `CC(C)(C)N1CCC(n2cc([C@@H](Nc3cc(Cl)c4ncc(C#N)c(Nc5ccc(F)c(Cl)c5)c4c3)c3cccc(NS(C)(=O)=O)c3)nn2)CC1` [Compound 25], the EC50 in experiment [1] (setting [3]) stood at 975 nM. Also, in experiment [2] (setting [7]), the IC50 is 4 nM.

With `CC(C)(C)CNc1c(C#N)cnc2c(Cl)cc(N[C@@H](c3ccc(F)cc3)c3c[nH]nn3)cc12` [Example 400, (S)-8-chloro-6-(((4-fluorophenyl)(1H-1,2,3-triazol-4-yl)methyl)amino)-4-(neopentylamino) quinoline-3-carbonitrile], the EC50 in experiment [1] (setting [3]) amounted to 1230 nM. The IC50 in experiment [2] (setting [7]) came out at 47 nM.

`[2H][C@](Nc1cc(Cl)c2ncc(C#N)c(NCC3(C(F)F)CC3)c2c1)(c1ccc(F)cc1)c1cn(C2CC2)nn1` [Example 203, (S)-8-chloro-6-(((1-cyclopropyl-1H-1,2,3-triazol-4-yl)(4-fluorophenyl)methyl-d)amino)-4-(((1-(difluoromethyl)cyclopropyl)methyl)amino) quinoline-3-carbonitrile]: the EC50 in experiment [1] (setting [3]) came out at 608 nM. For the same compound, the IC50 in experiment [2] (setting [7]) was 38 nM.
